Data on 2 compounds can be found in patent US20110172422A1, “Methods of Making Pharmacokinetically Improved Compounds Comprising Functional Residues or Groups and Pharmaceutical Compositions Comprising Said Compounds” (SURFACE LOGIX, INC., priority 2005, published 2011).

Series [1] can be described thus: Caco-2 permeability. The class given is in vitro ADME. Particulars: human; for Papp A→B: AtoB; for Papp B→A: BtoA. An excerpt:
Several model systems are available, employing monolayers of various cell types, for evaluation of active transport of pharmaceutically active substances. For example, monolayers of Caco-2 intestinal epithelial cells can be used to evaluate active transport of substances between the intestine and the bloodstream. When plated on a surface which allows the flow of material from apical to basolateral and vice versa, such cells form a biological membrane which can be used to simulate physiological absorption and bio-availability. In another example, mouse brain capillary endothelial cell (MBEC) lines have been established to evaluate active transport in and out of the central nervous system. Another example of such cells is HT29 human colon carcinoma cells. Further, monolayers expressing particular transporter proteins can be established using transfected cells. For example, Sasaki et al (2002) J. Biol. Chem. 8:6497 used a double-transfected Madin-Darby canine kidney cell monolayer to study transport of organic anions.

Series [2] is described as follows: PAMPA permeability. The class given is in vitro ADME. Particulars: PAMPA.
Series [3] can be described thus: Solubility. In kind it is physicochemical.
Series [4] can be described thus: Non-specific binding. In kind it is in vitro ADME.
A short description of series [5]: Protein binding. In kind it is in vitro ADME. To be noted: human, human serum components. The procedure:
In general, protein binding is assessed by measuring the capacity of molecules of the invention to bind to one or more human serum components or mimics thereof. In one embodiment, suitable functional residues may be identified by screening of surfaces comprising such residues for their ability to resist adsorption of serum components, including, but not limited to serum proteins, and preferably human serum proteins. Candidate residues can be screened directly by attaching them to a solid support and testing the support for protein resistance. Alternatively, candidate residues are incorporated into, or linked to molecules of pharmaceutical interest. Such compounds may be synthesized on a solid support, or bound to a solid support after synthesis. In a non-limiting example of a direct binding assay, immobilized candidate functional residues or molecules incorporating such residues are tested for their ability to bind serum components. The serum components can be labeled with a signaling moiety for detection, or a labeled secondary reagent that binds to such serum components can be used.

Series [6] concerns the target PDE-1. The experiment in a line: Phosphodiesterase inhibition PDE-1. In kind it is biochemical. As for the experimental part: (§1) Phosphodiesterase inhibition was determined by methods known to one of skill in the art.
Series [7] concerns the target PDE-3. The experiment in a line: Phosphodiesterase inhibition PDE-3. In kind it is biochemical. As for the experimental part: as §1
For series [8], the target named is PDE-6. Nature of the series: Phosphodiesterase inhibition PDE-6. The class given is biochemical. The procedure: as §1
The nature of series [9]: Cytotoxicity GC50. The class given is cell-based.
The target of series [10] is T1, PDE5 (Homo sapiens, UniProt O76074). The experiment in a line: Phosphodiesterase inhibition IC50 (Table 1). The class given is biochemical. Particulars: PDE5 inhibitor scaffold Compound B. The procedure: as §1
Series [11] is described as follows: RLM half-life. In kind it is in vitro ADME. Particulars: rat, liver microsomes, read-out: RLM T1/2.
Series [12] has as its target T1, PDE5. The experiment in a line: Phosphodiesterase inhibition PDE-5 human. In kind it is biochemical. The procedure: as §1
Series [13] is described as follows: Cytotoxicity LC50. The class given is cell-based. Particulars: Chronic; read-out: Cytotox LC50 Chronic.
[14] abbreviates: pH 2.7, aqueous buffer, pH 2.7, read-out: Solubility pH 2.7.
Setting [15] is: pH 7.4, aqueous buffer, pH 7.4, read-out: Solubility pH 7.4.

Each structure is given as a SMILES string. Like-named read-outs stand apart in the source and are kept apart here.

`CCCc1nc(C)c2c(=O)[nH]c(-c3cc(S(=O)(=O)N(C)C(C)(C)C(=O)N(C)C)ccc3OCC)nn12` [Compound 3] had a Papp A→B in series [1] of 28.9 ×10⁻⁶ cm/s. In series [1], this compound came in with a Papp B→A of 58.5 ×10⁻⁶ cm/s. Besides, the Papp in series [2] (Hex, read-out: PAMPA Hex) worked out at 9.11 ×10⁻⁶ cm/s. Further, the solubility in [3] (setting [14]) and in [3] (setting [15]) was over 100 µg/mL throughout. In addition, the “Non-Spec Binding” value in [4] was 14.3%. For the same compound, the fraction unbound in series [5] was 0.076. The IC50 is 10 nM in [6], 412 nM in [7] and 1.7 nM in series [8]. In series [9], the “Cytotox GC50” value was 100000 nM.

As for `CCCc1nc(C)c2c(=O)[nH]c(-c3cc(S(=O)(=O)NC)ccc3OCC)nn12` [Compound 20], the concentration for half-maximal inhibition (IC50) in series [10] stood at 0.24 nM; in series [6], 28 nM; in [7], 1010 nM; in series [12], 0.243 nM; in series [8], 4.18 nM. Further, the Papp A→B in [1] is 24.3 ×10⁻⁶ cm/s. In addition, the Papp B→A in series [1] was 53 ×10⁻⁶ cm/s. The Papp in series [2] (Hex, read-out: PAMPA Hex) amounted to 0.37 ×10⁻⁶ cm/s; in [2] (Lec, read-out: PAMPA Lec), 0.00384 ×10⁻⁶ cm/s. Moreover, the solubility in series [3] (setting [14]) and in series [3] (setting [15]) was over 100 µg/mL in each case. The half-life in [11] was 1 h. In addition, in series [4], the “Non-Spec Binding” value came to 16.23%. In addition, the unbound share (fraction unbound) in [5] is 0.0397. For the same compound, the CC50 in series [13] was found to be 100000 nM. Also, the “Cytotox GC50” value in series [9] was 100000 nM.
